What follows are molecules tested on AMP-activated protein kinase (AMPK) (assay: ADP Quest assay for AMPK activators). Conditions: fold of AMPK activation to phosphorylate SAMS peptide without and with an activator at the concentration of 30 μM.
Assay type: biochemical
Set-up: key: fold AMPK activation at 30 μM activator vs none
Description: This method evaluates AMP-activated protein kinase (AMPK) activity through detecting the accumulation of ADP product using an ADP Quest kit and determining the E30 values of the small molecular AMPK activators. ADP Quest kit (DiscoveRx, Fremont, Calif.) is stored at −20° C. before use. Before an experiment, thaw the kit (include assay buffer, ADP standard solution, reagent A and reagent B) and equilibrate to room temperature. Dispense the ADP Quest reagents into single-use aliquots and store at −20° C. The compound concentrations typically range from 0 μM to 100 μM by 2-fold dilution. AMP concentrations range from 0.98 μM to 1 mM as the reference control. In an assay, thaw and equilibrate the assay buffer, reagent A and reagent B to room temperature for 30 minutes prior to use. Mix ATP, SAMS peptide substrate and compound, and place them into the 384-well assay plate. Add reagent A and B based on the assay kit protocol. Incubate the assay plate at room temperature for 30 minutes after addition the mixture followed by the addition of AMPK protein (Invitrogen, CA) to initiate the AMPK phosphorylation reaction. At the same time, reactions with AMPK activator AMP in the absence of enzyme is included as blank control. The reaction fluorescence signal is monitored and recorded on Envision in kinetic mode with the excitation wavelength of 530 nm and emission wavelength of 590 nm. The E30 value, defined as the fold of AMPK activation to phosphorylate SAMS peptide without and with an activator at the concentration of 30 μM, is calculated and analyzed using Prism 5.0.

Row | SMILES | E30
1 | CC1(C)CC(c2ccccc2NC(=O)c2ccc(F)cc2)Nc2ccc(C(=O)O)cc21 (centres unmarked) [Example-32, 2-[2-(4-Fluoro-benzoylamino)-phenyl]-4,4-dimethyl-1,2,3,4-tetrahydro-quinoline-6-carboxylic acid] | 1.31
2 | CC1(C)CC(c2ccccc2NS(=O)(=O)c2cccc(F)c2)Nc2ccc(Cl)cc21 (centres unmarked) [Example-14, N-[2-(6-Chloro-4,4-dimethyl-1,2,3,4-tetrahydro-quinolin-2-yl)-phenyl]-3-fluoro-benzenesulfonamide] | 1.78
3 | CC(C)(Nc1cccc(C2CC(C)(C)c3cc(Cl)ccc3N2)c1)C(=O)O (centres unmarked) [Example 1, 2-[3-(6-Chloro-4,4-dimethyl-1,2,3,4-tetrahydro-quinolin-2-yl)-phenylamino]-2-methyl-propionic acid] | 3.30
4 | CC1(C)CC(c2ccccc2NS(=O)(=O)c2ccccc2F)Nc2ccc(C(F)(F)F)cc21 (centres unmarked) [Example-44, N-[2-(4,4-Dimethyl-6-trifluoromethyl-1,2,3,4-tetrahydro-quinolin-2-yl)-phenyl]-2-fluoro-benzenesulfonamide] | 1.15
5 | CC1(C)CC(c2ccccc2NS(=O)(=O)c2ccccc2F)Nc2ccc(Cl)cc21 (centres unmarked) [Example-21, N-[2-(6-Chloro-4,4-dimethyl-1,2,3,4-tetrahydro-quinolin-2-yl)-phenyl]-2-fluoro-benzenesulfonamide] | 1.75
6 | CC1(C)CC(c2ccccc2NS(=O)(=O)c2ccccc2)Nc2ccc(C(=O)O)cc21 (centres unmarked) [Example-41, 2-(2-Benzenesulfonylamino-phenyl)-4,4-dimethyl-1,2,3,4-tetrahydro-quinoline-6-carboxylic acid] | 2.63
7 | CCS(=O)(=O)Nc1ccccc1C1CC(C)(C)c2cc(C(F)(F)F)ccc2N1 (centres unmarked) [Example-46, Ethanesulfonic acid [2-(4,4-dimethyl-6-trifluoromethyl-1,2,3,4-tetrahydro-quinolin-2-yl)-phenyl]-amide] | 1.20
8 | CC1(C)CC(c2ccccc2NS(=O)(=O)c2ccc(F)cc2)Nc2ccc(C(=O)O)cc21 (centres unmarked) [Example-40, 2-[2-(4-Fluoro-benzenesulfonylamino)-phenyl]-4,4-dimethyl-1,2,3,4-tetrahydro-quinoline-6-carboxylic acid] | 3.01
9 | CC1(C)CC(c2ccccc2NS(=O)(=O)c2ccc(F)cc2)Nc2ccc(C(F)(F)F)cc21 (centres unmarked) [Example-45, N-[2-(4,4-Dimethyl-6-trifluoromethyl-1,2,3,4-tetrahydro-quinolin-2-yl)-phenyl]-4-fluoro-benzenesulfonamide] | 1.15
10 | CC1(C)CC(c2ccccc2NC(=O)c2ccccc2F)Nc2ccc(C(=O)O)cc21 (centres unmarked) [Example-35, 2-[2-(2-Fluoro-benzoylamino)-phenyl]-4,4-dimethyl-1,2,3,4-tetrahydro-quinoline-6-carboxylic acid] | 1.23
11 | CC1(C)CC(c2ccccc2NS(C)(=O)=O)Nc2ccc(C#N)cc21 (centres unmarked) [Example-23, N-[2-(6-Cyano-4,4-dimethyl-1,2,3,4-tetrahydro-quinolin-2-yl)-phenyl]-methanesulfonamide] | 1.14
12 | CC(C)(Nc1ccccc1C1CC(C)(C)c2cc(Cl)ccc2N1)C(=O)O (centres unmarked) [Example-26, 2-[2-(6-Chloro-4,4-dimethyl-1,2,3,4-tetrahydro-quinolin-2-yl)-phenylamino]-2-methyl-propionic acid] | 1.26
13 | CN1c2ccc(C#N)cc2C(C)(C)CC1c1cccc(NC(C)(C)C(=O)O)c1 (centres unmarked) [Example-24, 2-[3-(6-Cyano-1,4,4-trimethyl-1,2,3,4-tetrahydro-quinolin-2-yl)-phenylamino]-2-methyl-propionic acid] | 3.22
14 | CC1(C)CC(c2ccccc2NS(=O)(=O)c2cccnc2)Nc2ccc(C(=O)O)cc21 (centres unmarked) [Example-34, 4,4-Dimethyl-2-[2-(pyridine-3-sulfonylamino)-phenyl]-1,2,3,4-tetrahydro-quinoline-6-carboxylic acid] | 2.39
15 | CC1(C)CC(c2cccc(NS(=O)(=O)c3ccc(F)cc3)c2)Nc2ccc(C(F)(F)F)cc21 (centres unmarked) [Example-58, N-[3-(4,4-Dimethyl-6-trifluoromethyl-1,2,3,4-tetrahydro-quinolin-2-yl)-phenyl]-4-fluoro-benzenesulfonamide] | 1.34
16 | CC1(C)CC(c2ccccc2NS(=O)(=O)c2ccccc2F)Nc2ccc(C(=O)O)cc21 (centres unmarked) [Example-39, 2-[2-(2-Fluoro-benzenesulfonylamino)-phenyl]-4,4-dimethyl-1,2,3,4-tetrahydro-quinoline-6-carboxylic acid] | 2.69
17 | CC1(C)CC(c2ccccc2NS(C)(=O)=O)Nc2ccc(Cl)cc21 (centres unmarked) [Example-10, N-[2-(6-Chloro-4,4-dimethyl-1,2,3,4-tetrahydro-quinolin-2-yl)-phenyl]-methanesulfonamide] | 1.70
18 | CC1(C)CC(c2ccccc2NS(=O)(=O)c2cccc(F)c2)Nc2ccc(C(F)(F)F)cc21 (centres unmarked) [Example-43, N-[2-(4,4-Dimethyl-6-trifluoromethyl-1,2,3,4-tetrahydro-quinolin-2-yl)-phenyl]-3-fluoro-benzenesulfonamide] | 1.14

Second part, the molecule after the results:

Row | E30 | SMILES
19 | 2.63 | CC1(C)CC(c2cccc(NC3(C(=O)O)CC3)c2)Nc2ccc(Cl)cc21 (centres unmarked) [Example-2, 1-[3-(6-Chloro-4,4-dimethyl-1,2,3,4-tetrahydro-quinolin-2-yl)-phenylamino]-cyclopropanecarboxylic acid]
20 | 2.72 | CC1(C)CC(c2cccc(NC3(C(=O)O)CC3)c2)Nc2c(C(=O)O)cc(Cl)cc21 (centres unmarked) [Example-6, 2-[3-(1-Carboxy-cyclopropylamino)-phenyl]-6-chloro-4,4-dimethyl-1,2,3,4-tetrahydro-quinoline-8-carboxylic acid]
21 | 2.08 | CN1c2ccc(C(F)(F)F)cc2C(C)(C)CC1c1cccc(NC2(C(=O)O)CC2)c1 (centres unmarked) [Example-13, 1-[3-(1,4,4-Trimethyl-6-trifluoromethyl-1,2,3,4-tetrahydro-quinolin-2-yl)-phenylamino]-cyclopropanecarboxylic acid]
22 | 2.44 | CC1(C)CC(c2cccc(NC3(C(=O)O)CC3)c2)Nc2c(C(=O)O)cccc21 (centres unmarked) [Example-5, 2-[3-(1-Carboxy-cyclopropylamino)-phenyl]-4,4-dimethyl-1,2,3,4-tetrahydro-quinoline-8-carboxylic acid]
23 | 2.70 | CC(C)(Nc1cccc(C2CC(C)(C)c3cc(C#N)cc(Cl)c3N2)c1)C(=O)O (centres unmarked) [Example-29, 2-[3-(8-Chloro-6-cyano-4,4-dimethyl-1,2,3,4-tetrahydro-quinolin-2-yl)-phenylamino]-2-methyl-propionic acid]
24 | 2.37 | Cc1cc(C#N)cc2c1NC(c1cccc(NC(C)(C)C(=O)O)c1)CC2(C)C (centres unmarked) [Example-12, 2-[3-(6-Cyano-4,4,8-trimethyl-1,2,3,4-tetrahydro-quinolin-2-yl)-phenylamino]-2-methyl-propionic acid]
25 | 2.88 | CC(C)(Nc1cccc(C2CC(C)(C)c3cc(C#N)ccc3N2)c1)C(=O)O (centres unmarked) [Example-3, 2-[3-(6-Cyano-4,4-dimethyl-1,2,3,4-tetrahydro-quinolin-2-yl)-phenylamino]-2-methyl-propionic acid]
26 | 1.91 | CC1(C)CC(c2cccc(NC3(C(=O)O)CC3)c2)Nc2ccc(C(F)(F)F)cc21 (centres unmarked) [Example-17, 1-[3-(4,4-Dimethyl-6-trifluoromethyl-1,2,3,4-tetrahydro-quinolin-2-yl)-phenylamino]-cyclopropanecarboxylic acid]
27 | 1.88 | CC(C)(Nc1cccc(C2CC(C)(C)c3cccc(C(=O)O)c3N2)c1)C(=O)O (centres unmarked) [Example-15, 2-[3-(1-Carboxy-1-methyl-ethylamino)-phenyl]-4,4-dimethyl-1,2,3,4-tetrahydro-quinoline-8-carboxylic acid]
28 | 2.46 | CN1c2ccc(C#N)cc2C(C)(C)CC1c1cccc(NC2(C(=O)O)CC2)c1 (centres unmarked) [Example-28, 1-[3-(6-Cyano-1,4,4-trimethyl-1,2,3,4-tetrahydro-quinolin-2-yl)-phenylamino]-cyclopropanecarboxylic acid]
29 | 1.68 | Cc1cc(C#N)cc2c1NC(c1cccc(NC3(C(=O)O)CC3)c1)CC2(C)C (centres unmarked) [Example-8, 1-[3-(6-Cyano-4,4,8-trimethyl-1,2,3,4-tetrahydro-quinolin-2-yl)-phenylamino]-cyclopropanecarboxylic acid]
30 | 2.02 | CC1(C)CC(c2ccccc2NC2(C(=O)O)CC2)Nc2ccc(C#N)cc21 (centres unmarked) [Example-25, 1-[2-(6-Cyano-4,4-dimethyl-1,2,3,4-tetrahydro-quinolin-2-yl)-phenylamino]-cyclopropanecarboxylic acid]
31 | 1.79 | CC1(C)CC(c2cccc(NC3(C(=O)O)CC3)c2)Nc2c(Cl)cc(C#N)cc21 (centres unmarked) [Example-18, 1-[3-(8-Chloro-6-cyano-4,4-dimethyl-1,2,3,4-tetrahydro-quinolin-2-yl)-phenylamino]-cyclopropanecarboxylic acid]
32 | 2.43 | CC1(C)CC(c2cccc(NC3(C(=O)O)CC3)c2)Nc2ccc(C#N)cc21 (centres unmarked) [Example-4, 1-[3-(6-Cyano-4,4-dimethyl-1,2,3,4-tetrahydro-quinolin-2-yl)-phenylamino]-cyclopropanecarboxylic acid]

Reference: patent US8546427B2, “Tetrahydroquinoline derivatives” (Hoffmann-La Roche Inc., priority 2010, dated 2013)
